# Reference: patent US6656932B2, “Benzo thiadiazine matrix metalloproteinase inhibitors” (Warner-Lambert Company, priority 2001, dated 2003)
# Where a name gives a salt, the structure may show the parent alone.
# Biological target: MMP-3CD (catalytic domain of stromelysin-1) (Homo sapiens, UniProt P08254)
# Assay: Thiopeptolide hydrolysis assay, MMP-3CD
# Type: biochemical
# Settings: Table 1; thiopeptolide substrate, MES buffer pH 6.0; read-out: MMP03 (CD) IC50
# Procedure: (§1) The invention compounds of Formula I have been evaluated in standard assays for their ability to inhibit the catalytic activity of various MMP enzymes.
# (§2) Thiopeptolide substrates show virtually no decomposition or hydrolysis at or below neutral pH in the absence of a matrix metalloproteinase enzyme.
# (§3) Several representative compounds have been evaluated for their ability to inhibit various matrix metalloproteinase enzymes.
# It should be appreciated that the assay buffer used with MMP-3CD was 50 mM of N-morpholinoethane sulfonate (“MES”) at pH 6.0 rather than the HEPES buffer at pH 7.0 described above.
# Sequence of MMP-3CD (catalytic domain of stromelysin-1) (P08254 100-272 limits assumed): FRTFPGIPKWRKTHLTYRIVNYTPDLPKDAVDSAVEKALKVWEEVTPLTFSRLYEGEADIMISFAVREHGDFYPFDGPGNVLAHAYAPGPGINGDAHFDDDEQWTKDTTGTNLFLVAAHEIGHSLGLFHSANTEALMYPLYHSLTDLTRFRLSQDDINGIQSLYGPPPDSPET
row,IC50 [µM],Compound
1,85,"CN1C(=O)N(Cc2ccccc2)S(=O)(=O)c2cc(C(=O)OCc3ccccc3)ccc21 [Example 1, 2-Benzyl-4-methyl-1,1,3-trioxo-1,2,3,4-tetrahydro-1l^6-benzo[1,2,4]thiadiazine-7-carboxylic Acid Benzyl Ester]"

# Same assay, conditions: Table 2; thiopeptolide substrate, MES buffer pH 6.0; read-out: IC50 (μM) Versus Certain MMPs: MMP03 (CD)
row,IC50 [µM],Compound
1,16,"COc1ccc(CNC(=O)c2ccc3c(c2)S(=O)(=O)N(Cc2ccc([N+](=O)[O-])cc2)C(=O)N3C)cc1 [Example 17, 4-Methyl-2-(4-nitro-benzyl)-1,1,3-trioxo-1,2,3,4-tetrahydro-1l^6-benzo[1,2,4]thiadiazine-7-carboxylic acid 4-methoxy-benzylamide]"

# Biological target: MMP-13CD (catalytic domain of collagenase 3) (Homo sapiens, UniProt P45452)
# Assay: Thiopeptolide hydrolysis assay, MMP-13CD
# Type: biochemical
# Settings: Table 1; thiopeptolide substrate, HEPES pH 7.0; read-out: MMP13 (CD) IC50
# Text: as §1, §2, §3
row,IC50 [µM],Compound
1,0.51,"CN1C(=O)N(Cc2ccccc2)S(=O)(=O)c2cc(C(=O)NCc3ccncc3)ccc21 [Example 3, 2-Benzyl-4-methyl-1,1,3-trioxo-1,2,3,4-tetrahydro-1l^6-benzo[1,2,4]thiadiazine-7-carboxylic acid (pyridin-4-ylmethyl)-amide]"
2,0.2,"CN1C(=O)N(Cc2ccccc2)S(=O)(=O)c2cc(C(=O)OCc3ccccc3)ccc21 [Example 1, 2-Benzyl-4-methyl-1,1,3-trioxo-1,2,3,4-tetrahydro-1l^6-benzo[1,2,4]thiadiazine-7-carboxylic Acid Benzyl Ester]"
3,0.88,"CN1C(=O)N(Cc2ccccc2)S(=O)(=O)c2cc(C(=O)NCc3ccccc3)ccc21 [Example 2, 2-Benzyl-4-methyl-1,1,3-trioxo-1,2,3,4-tetrahydro-1l^6-benzo[1,2,4]thiadiazine-7-carboxylic Acid Benzylamide]"

# Same assay, conditions: Table 2; thiopeptolide substrate, HEPES pH 7.0; read-out: IC50 (μM) Versus Certain MMPs: MMP13 (CD)
row,Compound,IC50 [µM]
1,"CN1C(=O)N(Cc2ccccc2)S(=O)(=O)c2cc(C(=O)NCc3ccc(CCS(=O)(=O)NC(C)(C)C)cc3)ccc21 [Example 6, 2-Benzyl-4-methyl-1,1,3-trioxo-1,2,3,4-tetrahydro-1l^6-benzo[1,2,4]thiadiazine-7-carboxylic acid 4-(2-tert-butylsulfamoyl-ethyl)-benzylamide]",> 30
2,"COc1ccc(CNC(=O)c2ccc3c(c2)S(=O)(=O)N(C(C)c2ccccc2)C(=O)N3C)cc1 (centres unmarked) [Example 36, 4-Methyl-1,1,3-trioxo-2-(1-phenyl-ethyl)-1,2,3,4-tetrahydro-1l^6-benzo[1,2,4]thiadiazine-7-carboxylic Acid 4-methoxy-benzylamide]",6.3
3,"COC(=O)Nc1cc(CN2C(=O)N(C)c3ccc(C(=O)NCc4ccc(OC)cc4)cc3S2(=O)=O)on1 [Example 46, {5-[7-(4-Methoxy-benzylcarbamoyl)-4-methyl-1,1,3-trioxo-3,4-dihydro-1H-1l^6-benzo[1,2,4]thiadiazin-2-ylmethyl]-isoxazol-3-yl}-carbamic Acid Methyl Ester]",1.7
4,"COc1ccc(CNC(=O)c2ccc3c(c2)S(=O)(=O)N(Cc2ccc([N+](=O)[O-])cc2)C(=O)N3C)cc1 [Example 17, 4-Methyl-2-(4-nitro-benzyl)-1,1,3-trioxo-1,2,3,4-tetrahydro-1l^6-benzo[1,2,4]thiadiazine-7-carboxylic acid 4-methoxy-benzylamide]",0.615
5,"COc1ccc(CNC(=O)c2ccc3c(c2)S(=O)(=O)N(Cc2ccc(-c4ccccc4)cc2)C(=O)N3C)cc1 [Example 23, 2-Biphenyl-4-ylmethyl-4-methyl-1,1,3-trioxo-1,2,3,4-tetrahydro-1l^6-benzo[1,2,4]thiadiazine-7-carboxylic acid 4-methoxy-benzylamide]",> 30
6,"COc1ccc(CNC(=O)c2ccc3c(c2)S(=O)(=O)N(CCNC(=O)c2ccccc2)C(=O)N3C)cc1 [Example 44, 4-Methyl-1,1,3-trioxo-2-{2-[(1-phenyl-methanoyl)-amino]-ethyl}-1,2,3,4-tetrahydro-1l^6-benzo[1,2,4]thiadiazine-7-carboxylic Acid 4-methoxy-benzylamide]",86
7,"COc1ccc(CNC(=O)c2ccc3c(c2)S(=O)(=O)N(Cc2cscn2)C(=O)N3C)cc1 [Example 47, 4-Methyl-1,1,3-trioxo-2-thiazol-4-ylmethyl-1,2,3,4-tetrahydro-1l^6-benzo[1,2,4]thiadiazine-7-carboxylic Acid 4-methoxy-benzylamide]",13
8,"COc1ccc(CNC(=O)c2ccc3c(c2)S(=O)(=O)N(Cc2ccc(C(=O)OCCN(C)C)cc2)C(=O)N3C)cc1 [Example 26, 4-[7-(4-Methoxy-benzylcarbamoyl)-4-methyl-1,1,3-trioxo-3,4-dihydro-1H-1l^6-benzo[1,2,4]thiadiazin-2-ylmethyl]-benzoic acid 2-dimethylamino-ethyl Ester Hydrochloride]",2.2
9,"CN1C(=O)N(Cc2ccc(C(=O)OC(C)(C)C)cc2)S(=O)(=O)c2cc(C(=O)NCc3ccccc3)ccc21 [Example 10, 4-(7-Benzylcarbamoyl-4-methyl-1,1,3-trioxo-3,4-dihydro-1H-1l^6-benzo[1,2,4]thiadiazin-2-ylmethyl)-benzoic Acid Tert-Butyl Ester]",> 30
10,"COc1ccc(CNC(=O)c2ccc3c(c2)S(=O)(=O)N(CCCCCC#N)C(=O)N3C)cc1 [Example 37, 2-(5-Cyano-pentyl)-4-methyl-1,1,3-trioxo-1,2,3,4.tetrahydro-1l^6-benzo[1,2,4]thiadiazine-7-carboxylic Acid 4-methoxy-benzylamide]",3.2
11,"CN1C(=O)N(Cc2ccccc2)S(=O)(=O)c2cc(C(=O)NCc3ccc(CCS(N)(=O)=O)cc3)ccc21 [Example 8, 2-Benzyl-4-methyl-1,1,3-trioxo-1,2,3,4-tetrahydro-1l^6-benzo[1,2,4]thiadiazine-7-carboxylic acid 4-(2-sulfamoyl-ethyl)-benzylamide]",63

# Now from value to compound:
row,IC50 [µM],Compound
1,> 30,"CN1C(=O)N(Cc2ccccc2)S(=O)(=O)c2cc(C(=O)NCc3cc4ccccc4[nH]3)ccc21 [Example 7, 2-Benzyl-4-methyl-1,1,3-trioxo-1,2,3,4-tetrahydro-1l^6-benzo[1,2,4]thiadiazine-7-carboxylic acid (1H-indol-2-ylmethyl)-amide]"
2,1.7,"C=C(C)CN1C(=O)N(C)c2ccc(C(=O)NCc3ccc(OC)cc3)cc2S1(=O)=O [Example 40, 4-Methyl-2-(2-methyl-allyl)-1,1,3-trioxo-1,2,3,4-tetrahydro-1l^6-benzo[1,2,4]thiadiazine-7-carboxylic Acid 4-methoxy-benzylamide]"
3,11,"COc1ccc(CNC(=O)c2ccc3c(c2)S(=O)(=O)N(Cc2ccc(S(C)(=O)=O)cc2)C(=O)N3C)cc1 [Example 15, 2-(4-Methanesulfonyl-benzyl)-4-methyl-1,1,3-trioxo-1,2,3,4-tetrahydro-1l^6-benzo[1,2,4]thiadiazine-7-carboxylic acid 4-methoxy-benzylamide]"
4,2.2,"C/C=C/CN1C(=O)N(C)c2ccc(C(=O)NCc3ccc(OC)cc3)cc2S1(=O)=O [Example 38, 2-(E)-But-2-enyl-4-methyl-1,1,3-trioxo-1,2,3,4-tetrahydro-1l^6-benzo[1,2,4]thiadiazine-7-carboxylic Acid 4-methoxy-benzylamide]"
5,1.5,"CC/C=C/CN1C(=O)N(C)c2ccc(C(=O)NCc3ccc(OC)cc3)cc2S1(=O)=O [Example 39, 4-Methyl-1,1,3-trioxo-2-(E)-pent-2-enyl-1,2,3,4-tetrahydro-1l^6-benzo[1,2,4]thiadiazine-7-carboxylic Acid 4-methoxy-benzylamide]"
6,1.4,"CCC#CCN1C(=O)N(C)c2ccc(C(=O)NCc3ccc(OC)cc3)cc2S1(=O)=O [Example 35, 4-methyl-1,1,3-trioxo-2-pent-2-ynyl-1,2,3,4-tetrahydro-1l^6-benzo[1,2,4]thiadiazine-7-carboxylic Acid 4-methoxy-benzylamide]"
7,8.8,"COc1ccc(CNC(=O)c2ccc3c(c2)S(=O)(=O)N(Cc2ccc(N)cc2)C(=O)N3C)cc1 [Example 33, 2-(4-Amino-benzyl)-4-methyl-1,1,3-trioxo-1,2,3,4-tetrahydro-1l^6-benzo[1,2,4]thiadiazine-7-carboxylic acid 4-methoxy-benzylamide]"
8,0.7,"COc1ccc(CNC(=O)c2ccc3c(c2)S(=O)(=O)N(Cc2ccc4nonc4c2)C(=O)N3C)cc1 [Example 45, 2-Benzo[1,2,5]oxadiazol-5-ylmethyl-4-methyl-1,1,3-trioxo-1,2,3,4-tetrahydro-1l^6-benzo[1,2,4]thiadiazine-7-carboxylic Acid 4-methoxy-benzylamide]"
9,1.9,"COc1ccc(CNC(=O)c2ccc3c(c2)S(=O)(=O)N(CC=C(C)C)C(=O)N3C)cc1 [Example 41, 4-Methyl-2-(3-methyl-but-2-enyl)-1,1,3-trioxo-1,2,3,4-tetrahydro-1l^6-benzo[1,2,4]thiadiazine-7-carboxylic Acid 4-methoxy-benzylamide]"
10,> 30,"CN1C(=O)N(Cc2ccccc2)S(=O)(=O)c2cc(C(=O)NCc3ccc4[nH]ccc4c3)ccc21 [Example 4, 2-Benzyl-4-methyl-1,1,3-trioxo-1,2,3,4-tetrahydro-1l^6-benzo[1,2,4]thiadiazine-7-carboxylic acid (1H-indol-5-ylmethyl)-amide]"
11,100,"COc1ccc(CNC(=O)c2ccc3c(c2)S(=O)(=O)N(CCS(=O)(=O)c2ccc(C)cc2)C(=O)N3C)cc1 [Example 42, 4-Methyl-1,1,3-trioxo-2-[2-(toluene-4-sulfonyl)-ethyl]-1,2,3,4-tetrahydro-1l^6-benzo[1,2,4]thiadiazine-7-carboxylic Acid 4-methoxy-benzylamide]"
12,> 30,"COc1ccc(CNC(=O)c2ccc3c(c2)S(=O)(=O)N(Cc2ccc(C(=O)OC(C)(C)C)cc2)C(=O)N3C)cc1 [Example 12, 4-[7-(4-Methoxy-benzylcarbamoyl)-4-methyl-1,1,3-trioxo-3,4-dihydro-1H-1l^6-benzo[1,2,4]thiadiazin-2-ylmethyl]-Benzoic Acid Tert-Butyl Ester]"

# Biological target: T1, MMP-7FL (full-length matrilysin) (Homo sapiens, UniProt P09237)
# T1 sequence (P09237 95-267): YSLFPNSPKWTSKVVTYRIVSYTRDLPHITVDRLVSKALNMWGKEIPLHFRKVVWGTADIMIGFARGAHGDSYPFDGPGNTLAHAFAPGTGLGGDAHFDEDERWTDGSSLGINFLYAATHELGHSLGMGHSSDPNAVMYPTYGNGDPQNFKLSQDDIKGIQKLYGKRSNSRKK
# Assay: Thiopeptolide hydrolysis assay, MMP-7FL
# Type: biochemical
# Settings: Table 1; thiopeptolide substrate, HEPES pH 7.0; read-out: MMP07 (FL) IC50
# Text: as §1, §2, §3
row,IC50 [µM],Compound
1,44,"CN1C(=O)N(Cc2ccccc2)S(=O)(=O)c2cc(C(=O)OCc3ccccc3)ccc21 [Example 1, 2-Benzyl-4-methyl-1,1,3-trioxo-1,2,3,4-tetrahydro-1l^6-benzo[1,2,4]thiadiazine-7-carboxylic Acid Benzyl Ester]"
